US9822147B2, “Methods of treating ophthalmic diseases using NPR-B agonists” (priority 2009, dated 2017)
Numbered stars: 1 amine (or outer) side, 2 acyl side, 3 side chain; on linkers, the order of the positions; unused ones are H or OH. Square brackets hold non-standard residues; d marks the D form. Peptide text beside a SMILES is read from it. * marks the point of attachment. Pro(4R-NH2) = N[C@H]1CN[C@H](C(=O)O)C1; dOrn(Me2) = CN(C)CCC[C@@H](N)C(=O)O; X2 = O=C([C@H]1CCCN([*:1])C1)[*:2]; dDap(Me2) = CN(C)C[C@@H](N)C(=O)O; Hyp = O=C(O)[C@@H]1C[C@@H](O)CN1; NMeL = CN[C@@H](CC(C)C)C(=O)O; Octanoyl = CCCCCCCC(=O)*

What was measured:
rabbit eyes = experiment: Efficacy in the rabbit: intraocular pressure (IOP) after a single topical ocular drop; format: in vivo; conditions: dose 300 ug topical ocular, single 30 μL drop, up to 4 hr post dose, 1% as suspension (+) or solution (++) per mark on label
Experimental: A single 30 μL drop of a test item formulation was administered to rabbit eyes (n=8 to 10).
Intraocular pressure (IOP) was assessed in each eye at 0 hr, just prior to dosing, and again hourly for up to 4 hr post dose. The efficacy of a given formulation was determined based on the difference between the pretreatment TOP readings at 0 hr and the post treatment readings. A maximum percent reduction in IOP greater than 15% was noted by the “+” symbol. A maximum IOP reduction of less than 15% was assigned the “−” symbol.

[1] = test system: small-cell lung cancer cells; conditions: 100 μM; cited from earlier work
[2] = test system: human renal carcinoma cells; conditions: 100 μM; cited from earlier work
NPR-B receptor = target: T1, NPR-B receptor (Mus musculus, UniProt Q6VVW5); conditions: AtT-20 cells; cited from earlier work
T1 construct: the only natriuretic receptor present on the cell surface was the NPR-B receptor; host or cells: AtT-20 pituitary tumor cells (endogenous receptor)
T1 sequence (Q6VVW5 17-1047): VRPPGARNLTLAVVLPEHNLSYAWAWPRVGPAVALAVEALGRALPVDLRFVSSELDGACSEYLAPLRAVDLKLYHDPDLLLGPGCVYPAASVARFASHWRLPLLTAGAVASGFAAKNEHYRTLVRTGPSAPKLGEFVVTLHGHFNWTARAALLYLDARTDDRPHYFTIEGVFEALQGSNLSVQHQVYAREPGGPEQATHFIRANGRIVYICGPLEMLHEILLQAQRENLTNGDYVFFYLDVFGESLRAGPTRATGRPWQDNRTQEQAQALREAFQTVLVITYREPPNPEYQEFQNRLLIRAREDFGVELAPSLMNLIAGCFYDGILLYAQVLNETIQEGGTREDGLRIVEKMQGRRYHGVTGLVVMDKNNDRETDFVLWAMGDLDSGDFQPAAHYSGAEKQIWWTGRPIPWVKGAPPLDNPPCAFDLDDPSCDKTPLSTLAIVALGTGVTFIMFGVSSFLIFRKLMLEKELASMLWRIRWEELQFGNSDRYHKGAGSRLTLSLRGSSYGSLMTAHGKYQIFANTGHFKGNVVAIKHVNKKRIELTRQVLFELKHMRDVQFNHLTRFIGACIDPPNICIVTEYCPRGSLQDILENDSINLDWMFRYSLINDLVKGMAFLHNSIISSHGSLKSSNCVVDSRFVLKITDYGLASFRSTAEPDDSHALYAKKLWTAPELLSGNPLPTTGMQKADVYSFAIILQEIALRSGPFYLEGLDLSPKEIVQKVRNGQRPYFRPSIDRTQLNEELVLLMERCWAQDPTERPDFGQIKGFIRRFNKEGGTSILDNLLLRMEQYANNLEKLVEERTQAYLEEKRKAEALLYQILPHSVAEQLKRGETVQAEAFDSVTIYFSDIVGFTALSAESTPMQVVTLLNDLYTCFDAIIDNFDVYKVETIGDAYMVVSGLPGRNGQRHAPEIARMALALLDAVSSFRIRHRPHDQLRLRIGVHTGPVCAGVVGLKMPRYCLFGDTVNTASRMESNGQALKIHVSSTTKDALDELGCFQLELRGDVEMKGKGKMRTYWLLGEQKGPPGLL

chondrocytes = conditions: CNP 10 to 100 pM, at the highest dose; cited from earlier work
[3] = test system: human colon adenocarcinoma cells; conditions: 1 mM ANP, within 24 h; cited from earlier work
NPR-B = target: T2, NPR-B (Homo sapiens, UniProt P20594); experiment: NPR-B induced production of cyclic GMP in human glaucoma trabecular meshwork cells (GTM-3); format: cell-based; conditions: group by EC50 and Emax (CNP = 100%); Table 4; read-out: Activity (group), NPR-B activation assayed with GTM-3 cells
T2 construct: a functional assay using endogenously NPR-B expressing GTM-3 cells; endogenous in cells; host or cells: GTM-3 (human glaucoma trabecular meshwork cells)
T2 sequence (P20594 23-1047): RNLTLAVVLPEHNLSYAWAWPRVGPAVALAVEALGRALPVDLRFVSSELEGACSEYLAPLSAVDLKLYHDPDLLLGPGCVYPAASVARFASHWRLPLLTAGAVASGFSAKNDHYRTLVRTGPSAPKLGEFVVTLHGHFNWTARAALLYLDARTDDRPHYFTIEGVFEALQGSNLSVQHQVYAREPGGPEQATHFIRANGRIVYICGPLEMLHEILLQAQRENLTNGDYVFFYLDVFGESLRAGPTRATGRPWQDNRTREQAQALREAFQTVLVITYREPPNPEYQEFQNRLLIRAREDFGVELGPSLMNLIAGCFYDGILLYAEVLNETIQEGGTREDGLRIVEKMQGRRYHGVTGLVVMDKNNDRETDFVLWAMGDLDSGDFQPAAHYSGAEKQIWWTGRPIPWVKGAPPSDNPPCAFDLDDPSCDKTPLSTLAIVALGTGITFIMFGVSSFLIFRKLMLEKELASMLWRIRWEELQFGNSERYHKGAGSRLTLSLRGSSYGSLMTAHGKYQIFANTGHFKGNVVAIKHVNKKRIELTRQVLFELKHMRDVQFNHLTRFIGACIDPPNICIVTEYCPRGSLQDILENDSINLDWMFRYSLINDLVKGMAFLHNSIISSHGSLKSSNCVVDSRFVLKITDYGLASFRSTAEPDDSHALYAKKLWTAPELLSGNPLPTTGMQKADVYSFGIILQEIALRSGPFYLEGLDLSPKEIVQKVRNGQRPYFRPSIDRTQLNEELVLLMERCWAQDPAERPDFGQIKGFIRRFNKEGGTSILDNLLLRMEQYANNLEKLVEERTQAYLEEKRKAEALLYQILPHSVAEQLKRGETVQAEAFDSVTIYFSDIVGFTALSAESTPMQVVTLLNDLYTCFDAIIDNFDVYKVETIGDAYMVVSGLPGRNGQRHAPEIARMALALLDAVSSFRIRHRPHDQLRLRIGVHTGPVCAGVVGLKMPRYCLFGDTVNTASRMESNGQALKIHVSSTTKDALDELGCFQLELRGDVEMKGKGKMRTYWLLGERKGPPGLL

## CC[C@H](C)[C@@H]1NC(=O)[C@H](CCCNC(=N)N)NC(=O)[C@H](CC(=O)O)NC(=O)[C@H](CC(C)C)NC(=O)[C@H](CCCCN)NC(=O)[C@H](CC(C)C)NC(=O)CNC(=O)[C@H](Cc2ccccc2)NC(=O)[C@@H](NC(=O)CNC(=O)[C@H](CCCCN)NC(=O)[C@H](CO)NC(=O)[C@H](CC(C)C)NC(=O)CN)CSSC[C@@H](C(=O)O)NC(=O)CNC(=O)[C@H](CC(C)C)NC(=O)CNC(=O)[C@H](CO)NC(=O)[C@H](CCSC)NC(=O)[C@H](CO)NC(=O)CNC1=O [CNP, C-type natriuretic peptide]
Rabbit eyes
  RIOP, maximum percent reduction in IOP: − (− IOP reduction <15%)
[1]
  decrease in the number of small-cell lung cancer cells: 39%
[2]
  decrease in cell number of human renal carcinoma cells: 10%
NPR-B receptor
  stimulation of cGMP production: up to 200 fold
chondrocytes
  increase in cellularity (chondrocyte proliferation): up to 43%

## CC[C@H](C)[C@@H]1NC(=O)[C@H](CCCNC(=N)N)NC(=O)[C@H](CC(=O)O)NC(=O)[C@H](CCSC)NC(=O)[C@H](CCCNC(=N)N)NC(=O)CNC(=O)CNC(=O)[C@H](Cc2ccccc2)NC(=O)[C@@H](NC(=O)[C@H](CO)NC(=O)[C@H](CO)NC(=O)[C@H](CCCNC(=N)N)NC(=O)[C@H](CCCNC(=N)N)NC(=O)[C@H](CC(C)C)NC(=O)[C@@H](N)CO)CSSC[C@@H](C(=O)N[C@@H](CC(N)=O)C(=O)N[C@@H](CO)C(=O)N[C@@H](Cc2ccccc2)C(=O)N[C@@H](CCCNC(=N)N)C(=O)N[C@@H](Cc2ccc(O)cc2)C(=O)O)NC(=O)CNC(=O)[C@H](CC(C)C)NC(=O)CNC(=O)[C@H](CO)NC(=O)[C@H](CCC(N)=O)NC(=O)[C@H](C)NC(=O)CNC1=O [ANP, atrial natriuretic peptide]
[3]
  decrease in cell number: up to 97%

## CCCCCCCC(=O)N1CCC[C@H](C(=O)N[C@@H](Cc2ccccc2)C(=O)N[C@H](CN(C)C)C(=O)N[C@@H](CC(C)C)C(=O)N2C[C@H](N)C[C@H]2C(=O)N(C)[C@@H](CC(C)C)C(=O)N[C@@H](CC(=O)O)C(=O)N[C@@H](CCCNC(=N)N)C(=O)N[C@H](C(N)=O)[C@@H](C)CC)C1 [JAL-1325, Occ-Sni-Phe-dap(Me2)-Leu-Tap-Nml-Asp-Arg-Ile-NH2] (Octanoyl-[X2]F[dDap(Me2)]L[Pro(4R-NH2)][NMeL]DRI-NH2)
NPR-B
  EC50: < 1 µM
Rabbit eyes
  RIOP, maximum percent reduction in IOP: + (+ IOP reduction >15%)

## CCCCCCCC(=O)N1CCC[C@H](C(=O)N[C@@H](Cc2ccccc2)C(=O)N[C@H](CCCN(C)C)C(=O)N[C@@H](CC(C)C)C(=O)N2C[C@H](O)C[C@H]2C(=O)N(C)[C@@H](CC(C)C)C(=O)N[C@@H](CC(=O)O)C(=O)N[C@@H](CCCNC(=N)N)C(=O)N[C@H](C(N)=O)[C@@H](C)CC)C1 [JAL-1289, Occ-Sni-Phe-orn(Me2)-Leu-Hyp-Nml-Asp-Arg-Ile-NH2] (Octanoyl-[X2]F[dOrn(Me2)]L[Hyp][NMeL]DRI-NH2)
NPR-B
  EC50: < 1 µM
Rabbit eyes
  RIOP, maximum percent reduction in IOP: + (+ IOP reduction >15%)

## CCCCCCCC(=O)N[C@H](C)C(=O)N[C@@H](Cc1ccccc1)C(=O)N[C@H](CC(C)C)C(=O)N[C@@H](CC(C)C)C(=O)N1C[C@H](O)C[C@H]1C(=O)N(C)[C@@H](CC(C)C)C(=O)N[C@@H](CC(=O)O)C(=O)N[C@@H](CCCNC(=N)N)C(=O)N[C@H](C(N)=O)[C@@H](C)CC [JAL-1042, Occ-ala-Phe-leu-Leu-Hyp-Nml-Asp-Arg-Ile-NH2] (HELM PEPTIDE1{[CCCCCCCC(=O)[*:2]].[dA].F.[dL].L.[Hyp].[meL].D.R.I.[am]}$$$$V2.0)
NPR-B
  EC50: < 1 µM
Rabbit eyes
  RIOP, maximum percent reduction in IOP: − (− IOP reduction <15%)
